# From patent US20210298306A1, “PESTICIDALLY ACTIVE AZOLE-AMIDE COMPOUNDS” (SYNGENTA PARTICIPATIONS AG, priority 2018, published 2021)
# Columns and labels:
# Myzus persicae [1] = experiment: Example B6: Myzus persicae (green peach aphid), intrinsic activity, sucrose solution, 24-well; type: in vivo; conditions: 120 h, test rate 12 ppm, 5 days after infestation
# Excerpt: Example B6: Myzus persicae (Green Peach Aphid). Intrinsic Activity
# Test compounds prepared from 10,000 ppm DMSO stock solutions were applied by pipette into 24-well microtiter plates and mixed with sucrose solution. The plates were closed with a stretched Parafilm. A plastic stencil with 24 holes was placed onto the plate and infested pea seedlings were placed directly on the Parafilm. The infested plate was closed with a gel blotting paper and another plastic stencil and then turned upside down. The samples were assessed for mortality 5 days after infestation.
# Plutella xylostella [2] = experiment: Example B11: Plutella xylostella (diamondback moth), artificial diet, 96-well, eggs; type: in vivo; conditions: 216 h, application rate 500 ppm, 9 days after infestation
# Protocol: Example B11: Plutella xylostella (Diamondback Moth)
# 96-well microtiter plates containing artificial diet were treated with aqueous test solutions, prepared from 10,000 ppm DMSO stock solutions, by a liquid handling robot. After drying, eggs (˜30 per well) were infested onto a netted lid which was suspended above the diet. The eggs hatch and L1 larvae move down to the diet. The samples were assessed for mortality 9 days after infestation.
# The following compounds gave an effect of at least 80% average mortality at an application rate of 500 ppm: […]
# Myzus persicae [3] = experiment: Example B10: Myzus persicae (green peach aphid), sucrose solution, 96-well; type: in vivo; conditions: 120 h, application rate 50 ppm, 5 days after infestation
# Excerpt: Example B10: Myzus persicae (Green Peach Aphid)
# Test compounds prepared from 10,000 ppm DMSO stock solutions were applied by a liquid handling robot into 96-well microtiter plates and mixed with a sucrose solution. Parafilm was stretched over the 96-well microtiter plate and a plastic stencil with 96 holes was placed onto the plate. Aphids were sieved into the wells directly onto the Parafilm. The infested plates were closed with a gel blotting card and a second plastic stencil and then turned upside down. The samples were assessed for mortality 5 days after infestation.
# Myzus persicae [4] = experiment: Example B5: Myzus persicae (green peach aphid), feeding/contact activity, sunflower leaf discs; type: in vivo; conditions: foliar, 144 h, application rate 200 ppm, 6 days after infestation, Myzus persicae mixed ages
# Protocol: Example B5: Myzus persicae (Green Peach Aphid):Feeding/Contact Activity
# (§1) Sunflower leaf discs were placed onto agar in a 24-well microtiter plate and sprayed with aqueous test solutions prepared from 10,000 ppm DMSO stock solutions. After drying, the leaf discs were infested with an aphid population of mixed ages. The samples were assessed for mortality 6 days after infestation.
# Spodoptera littoralis [5] = experiment: Example B7: Spodoptera littoralis (Egyptian cotton leaf worm), cotton leaf discs sprayed, L1 larvae; type: in vivo; conditions: foliar, 72 h, application rate 200 ppm, 3 days after infestation, read-out: control in at least one of the categories (mortality, anti-feedant effect, or growth inhibition)
# Protocol: Example B7: Spodoptera littoralis (Egyptian Cotton Leaf Worm)
# Cotton leaf discs were placed onto agar in 24-well microtiter plates and sprayed with aqueous test solutions prepared from 10,000 ppm DMSO stock solutions. After drying the leaf discs were infested with five L1 larvae. The samples were assessed for mortality, anti-feeding effect, and growth inhibition in comparison to untreated samples 3 days after infestation. Control of Spodoptera littoralis by a test sample is given when at least one of the categories mortality, anti-feedant effect, and growth inhibition is higher than the untreated sample.
# Chilo suppressalis = experiment: Example B3: Chilo suppressalis (striped rice stemborer), artificial diet, L2 larvae; type: in vivo; conditions: 144 h, application rate 200 ppm, 6 days after infestation, read-out: control in at least one of the categories (mortality, anti-feedant effect, or growth inhibition)
# Protocol: Example B3: Chilo suppressalis (Striped Rice Stemborer)
# 24-well microtiter plates with artificial diet were treated with aqueous test solutions prepared from 10,000 ppm DMSO stock solutions by pipetting. After drying, the plates were infested with L2 larvae (6-8 per well). The samples were assessed for mortality, anti-feeding effect, and growth inhibition in comparison to untreated samples 6 days after infestation. Control of Chilo suppressalis by a test sample is given when at least one of the categories mortality, anti-feedant effect, and growth inhibition is higher than the untreated sample.
# Euschistus heros = experiment: Example B2: Euschistus heros (neotropical brown stink bug), soybean leaves sprayed, N2 nymphs; type: in vivo; conditions: 120 h, application rate 200 ppm, 5 days after infestation, read-out: effect in at least one of the two categories (mortality or growth inhibition)
# Protocol: Example B2: Euschistus heros (Neotropical Brown Stink Bug)
# Soybean leaves on agar in 24-well microtiter plates were sprayed with aqueous test solutions prepared from 10,000 ppm DMSO stock solutions. After drying the leaves were infested with N2 nymphs. The samples were assessed for mortality and growth inhibition in comparison to untreated samples 5 days after infestation.
# (§2) The following compounds gave an effect of at least 80% in at least one of the two categories (mortality or growth inhibition) at an application rate of 200 ppm: […]
# Plutella xylostella [6] = experiment: Example B4: Plutella xylostella (diamond back moth), artificial diet, 24-well, eggs; type: in vivo; conditions: 192 h, application rate 200 ppm, 8 days after infestation, read-out: effect in at least one of the two categories (mortality or growth inhibition)
# Protocol: Example B4: Plutella xylostella (Diamond Back Moth)
# 24-well microtiter plates with artificial diet were treated with aqueous test solutions prepared from 10,000 ppm DMSO stock solutions by pipetting. After drying, Plutella eggs were pipetted through a plastic stencil onto a gel blotting paper and the plate was closed with it. The samples were assessed for mortality and growth inhibition in comparison to untreated samples 8 days after infestation.
# as §2
# Spodoptera littoralis [7] = experiment: Example B8: Spodoptera littoralis (Egyptian cotton leaf worm), uptake by lettuce roots from agar, eggs; type: in vivo; conditions: 144 h, test rate 12.5 ppm, 6 days after infestation, lettuce root uptake, read-out: effect in at least one of the three categories (mortality, anti-feeding, or growth inhibition)
# Excerpt: Example B8: Spodoptera littoralis (Egyptian Cotton Leaf Worm)
# Test compounds were applied by pipette from 10,000 ppm DMSO stock solutions into 24-well plates and mixed with agar. Lettuce seeds were placed onto the agar and the multi well plate was closed by another plate which contained also agar. After 7 days the compound was absorbed by the roots and the lettuce grew into the lid plate. The lettuce leaves were then cut off into the lid plate. Spodoptera eggs were pipetted through a plastic stencil onto a humid gel blotting paper and the lid plate was closed with it. The samples were assessed for mortality, anti-feedant effect and growth inhibition in comparison to untreated samples 6 days after infestation.
# The following compounds gave an effect of at least 80% in at least one of the three categories (mortality, anti-feeding, or growth inhibition) at a test rate of 12.5 ppm: […]
# Diabrotica balteata = experiment: Example B1: Diabrotica balteata (corn root worm), maize sprouts sprayed, L2 larvae; type: in vivo; conditions: 96 h, application rate 200 ppm, 4 days after infestation, read-out: effect in at least one of the two categories (mortality or growth inhibition)
# Protocol: Example B1: Diabrotica Balteata (Corn Root Worm)
# Maize sprouts placed onto an agar layer in 24-well microtiter plates were treated with aqueous test solutions prepared from 10,000 ppm DMSO stock solutions by spraying. After drying, the plates were infested with L2 larvae (6 to 10 per well). The samples were assessed for mortality and growth inhibition in comparison to untreated samples 4 days after infestation.
# as §2
# Thrips tabaci = experiment: Example B9: Thrips tabaci (onion thrips), feeding/contact activity, sunflower leaf discs; type: in vivo; conditions: foliar, 144 h; application rate 200 ppm; 6 days after infestation; Thrips tabaci mixed ages
# Protocol: Example B9: Thrips tabaci (Onion Thrips) Feeding/Contact Activity
# as §1, with “on” for “onto”, “in” for “in a”, “plates” for “plate”, “drying” for “drying,”, “a thrips” for “an aphid”
melting point,SMILES,mortality at 12 ppm (Myzus persicae [1]),mortality at 500 ppm (Plutella xylostella [2]),mortality at 50 ppm (Myzus persicae [3]),mortality at 200 ppm (Myzus persicae [4]),"percent control (mortality, anti-feedant effect or growth inhibition) at 200 ppm (Spodoptera littoralis [5])","percent control (mortality, anti-feedant effect or growth inhibition) at 200 ppm (Chilo suppressalis)",percent effect (mortality or growth inhibition) at 200 ppm (Euschistus heros),percent effect (mortality or growth inhibition) at 200 ppm (Plutella xylostella [6]),"percent effect (mortality, anti-feeding or growth inhibition) at 12.5 ppm (Spodoptera littoralis [7])",percent effect (mortality or growth inhibition) at 200 ppm (Diabrotica balteata),mortality at 200 ppm (Thrips tabaci)
,"CC(NC(=O)c1cc(OCC(F)F)cc(C(F)(F)F)c1)c1ncnn1-c1ncccn1 (centres unmarked) [P20, 3-(2,2-difluoroethoxy)-N-[1-(2-pyrimidin-2-yl-1,2,4-triazol-3-yl)ethyl]-5-(trifluoromethyl) benzamide]",≥ 80%,≥ 80%,≥ 80%,≥ 80%,≥ 80%,≥ 80%,≥ 80%,≥ 80%,,,
,"CC(c1ncnn1-c1ncccn1)N(CC1CC1)C(=O)c1cc(SC(F)(F)F)cc(C(F)(F)F)c1 (centres unmarked) [P5, N-(cyclopropylmethyl)-N-[1-(2-pyrimidin-2-yl-1,2,4-triazol-3-yl)ethyl]-3-(trifluoromethyl)-5-(trifluoromethylsulfanyl) benzamide]",≥ 80%,,,,≥ 80%,≥ 80%,≥ 80%,≥ 80%,≥ 80%,≥ 80%,≥ 80%
,"CC(c1ncnn1-c1ncccn1)N(CC1CC1)C(=O)c1cc(SC(F)F)cc(C(F)(F)F)c1 (centres unmarked) [P18, N-(cyclopropylmethyl)-3-(difluoromethylsulfanyl)-N-[1-(2-pyrimidin-2-yl-1,2,4-triazol-3-yl)ethyl]-5-(trifluoromethyl) benzamide]",≥ 80%,≥ 80%,≥ 80%,≥ 80%,,,≥ 80%,≥ 80%,,≥ 80%,≥ 80%
105 to 110 °C,"CC(NC(=O)c1cncc(OC(F)F)c1)c1ncnn1-c1ccccn1 (centres unmarked) [P23, 5-(difluoromethoxy)-N-[1-[2-(2-pyridyl)-1,2,4-triazol-3-yl]ethyl]pyridine-3-carboxamide]",,,,,,,,,,,
,"CC(NC(=O)c1cc(OC(F)(F)F)cc(C(F)(F)F)c1)c1ncnn1-c1ncccn1 (centres unmarked) [P19, N-[1-(2-pyrimidin-2-yl-1,2,4-triazol-3-yl)ethyl]-3-(trifluoromethoxy)-5-(trifluoromethyl) benzamide]",≥ 80%,≥ 80%,≥ 80%,≥ 80%,≥ 80%,≥ 80%,≥ 80%,≥ 80%,,≥ 80%,
,"CC(NC(=O)c1cc(OCC(F)(F)F)cc(C(F)(F)F)c1)c1ncnn1-c1ncccc1F (centres unmarked) [P14, N-[1-[2-(3-fluoro-2-pyridyl)-1,2,4-triazol-3-yl]ethyl]-3-(2,2,2-trifluoroethoxy)-5-(trifluoromethyl) benzamide]",,≥ 80%,≥ 80%,,≥ 80%,,≥ 80%,≥ 80%,,≥ 80%,
,"CC(c1ncnn1-c1ncccn1)N(CC1CC1)C(=O)c1cc(OC(F)(F)F)cc(C(F)(F)F)c1 (centres unmarked) [P4, N-(cyclopropylmethyl)-N-[1-(2-pyrimidin-2-yl-1,2,4-triazol-3-yl)ethyl]-3-(trifluoromethoxy)-5-(trifluoromethyl) benzamide]",≥ 80%,,,≥ 80%,≥ 80%,≥ 80%,≥ 80%,≥ 80%,,≥ 80%,
,"CC(c1ncnn1-c1ncccn1)N(CC1CC1)C(=O)c1cc(OC(F)F)cc(C(F)(F)F)c1 (centres unmarked) [P2, N-(cyclopropylmethyl)-3-(difluoromethoxy)-N-[1-(2-pyrimidin-2-yl-1,2,4-triazol-3-yl)ethyl]-5-(trifluoromethyl) benzamide]",≥ 80%,,,≥ 80%,≥ 80%,≥ 80%,≥ 80%,≥ 80%,≥ 80%,≥ 80%,≥ 80%
